Reference: patent US20040219202A1, “Pharmaceutical composition comprising lipids comprising a polar and a nonpolar moiety” (priority 2001, published 2004)

Assays:
[1] = Net charge of cationic lipid; format: physicochemical; conditions: pH 7.4
From the text: The monoacetylenic analogues of DOPC, DOPE, DODAP and DOTAP were synthesised as described above. Standard lipids for comparisons (DOPC, DOPE and DOTAP (chloride salt)) were purchased from Sigma-Aldrich, Poole, Dorset, UK. Our invention the cationic, cholesterol-based lipid N^1-cholesteryloxycarbonyl-3,7-diazanononane-1,9-diamine (CDAN)—net charge=+1.6 at pH 7.4.CDAN (below) was synthesised by our group previously,^22 and is now available in a 1:1 molar ratio formulation with DOPE as Trojene™ (Avanti Polar Lipids, Inc., Alabaster, Ala., USA). [drawing 40]

C. tomentosicollis eggs = conditions: cited from earlier work
DNA = conditions: read-out: apparent DNA dissociation constant; cited from earlier work
DNA topoisomerase I = molecular target: T1, DNA topoisomerase I (Homo sapiens, UniProt P11387); conditions: cited from earlier work
T1 sequence (P11387 1-765): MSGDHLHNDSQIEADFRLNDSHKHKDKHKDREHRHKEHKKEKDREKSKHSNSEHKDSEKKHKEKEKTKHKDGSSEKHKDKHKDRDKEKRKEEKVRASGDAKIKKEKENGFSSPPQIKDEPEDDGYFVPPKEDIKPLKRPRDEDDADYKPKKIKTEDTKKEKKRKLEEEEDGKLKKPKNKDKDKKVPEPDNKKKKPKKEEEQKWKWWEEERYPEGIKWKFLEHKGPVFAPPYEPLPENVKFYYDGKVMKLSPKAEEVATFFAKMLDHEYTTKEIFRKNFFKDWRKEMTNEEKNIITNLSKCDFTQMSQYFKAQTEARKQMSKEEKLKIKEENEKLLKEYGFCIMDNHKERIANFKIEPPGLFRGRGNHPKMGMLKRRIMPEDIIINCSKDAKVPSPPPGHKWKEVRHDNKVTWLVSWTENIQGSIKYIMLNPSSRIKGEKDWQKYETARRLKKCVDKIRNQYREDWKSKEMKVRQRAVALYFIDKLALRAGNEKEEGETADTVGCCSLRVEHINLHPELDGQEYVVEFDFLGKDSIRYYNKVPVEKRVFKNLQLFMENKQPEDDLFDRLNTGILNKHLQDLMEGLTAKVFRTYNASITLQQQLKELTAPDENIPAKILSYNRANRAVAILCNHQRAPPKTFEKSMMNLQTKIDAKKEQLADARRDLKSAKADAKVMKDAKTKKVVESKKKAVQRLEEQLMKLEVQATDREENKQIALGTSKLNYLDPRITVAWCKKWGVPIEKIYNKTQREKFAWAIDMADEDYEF

DNA polymerase α = molecular target: T2, DNA polymerase α (Homo sapiens, UniProt P09884); conditions: cited from earlier work
T2 sequence (P09884 1-1462): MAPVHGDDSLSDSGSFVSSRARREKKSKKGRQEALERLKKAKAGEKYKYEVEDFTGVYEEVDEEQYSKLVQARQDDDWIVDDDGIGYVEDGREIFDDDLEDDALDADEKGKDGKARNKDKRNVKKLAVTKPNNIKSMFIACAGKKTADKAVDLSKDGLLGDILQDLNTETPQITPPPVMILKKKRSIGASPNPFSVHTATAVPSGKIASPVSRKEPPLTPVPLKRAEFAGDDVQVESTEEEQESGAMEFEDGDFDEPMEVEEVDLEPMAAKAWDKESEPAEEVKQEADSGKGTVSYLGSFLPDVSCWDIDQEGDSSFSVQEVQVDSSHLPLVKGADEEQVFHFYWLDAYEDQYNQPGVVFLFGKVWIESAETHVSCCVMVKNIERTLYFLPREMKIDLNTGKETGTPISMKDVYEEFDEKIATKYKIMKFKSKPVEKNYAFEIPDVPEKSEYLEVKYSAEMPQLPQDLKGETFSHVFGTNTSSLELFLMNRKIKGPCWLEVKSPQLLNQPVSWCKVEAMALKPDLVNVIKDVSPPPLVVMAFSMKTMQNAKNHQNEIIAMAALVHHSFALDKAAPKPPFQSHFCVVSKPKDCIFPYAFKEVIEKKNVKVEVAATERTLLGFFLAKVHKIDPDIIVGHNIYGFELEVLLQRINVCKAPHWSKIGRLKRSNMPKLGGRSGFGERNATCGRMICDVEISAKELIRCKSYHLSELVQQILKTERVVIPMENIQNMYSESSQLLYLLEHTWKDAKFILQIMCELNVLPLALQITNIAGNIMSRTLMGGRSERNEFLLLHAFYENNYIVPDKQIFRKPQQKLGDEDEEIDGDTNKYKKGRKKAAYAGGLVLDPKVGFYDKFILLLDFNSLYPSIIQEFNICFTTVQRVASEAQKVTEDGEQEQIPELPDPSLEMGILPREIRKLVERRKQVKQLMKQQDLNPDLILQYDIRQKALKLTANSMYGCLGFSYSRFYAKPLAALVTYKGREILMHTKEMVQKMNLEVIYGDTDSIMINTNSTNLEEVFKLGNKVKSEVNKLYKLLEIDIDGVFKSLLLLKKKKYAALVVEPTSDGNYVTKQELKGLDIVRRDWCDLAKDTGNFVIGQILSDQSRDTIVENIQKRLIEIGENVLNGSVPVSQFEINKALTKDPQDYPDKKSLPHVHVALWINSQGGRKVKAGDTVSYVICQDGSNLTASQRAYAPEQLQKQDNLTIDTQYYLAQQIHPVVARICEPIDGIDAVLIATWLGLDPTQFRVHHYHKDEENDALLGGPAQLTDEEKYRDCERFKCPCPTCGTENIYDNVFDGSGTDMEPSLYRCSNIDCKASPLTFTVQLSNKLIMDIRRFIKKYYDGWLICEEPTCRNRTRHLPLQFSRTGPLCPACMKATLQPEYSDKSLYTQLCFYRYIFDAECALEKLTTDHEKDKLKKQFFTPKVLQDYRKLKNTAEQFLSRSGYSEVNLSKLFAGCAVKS

[2] = molecular target: T3, Cytochrome P4504A4 (CYP4A4) (Oryctolagus cuniculus, UniProt P10611); conditions: cited from earlier work
T3 sequence (P10611 5-510): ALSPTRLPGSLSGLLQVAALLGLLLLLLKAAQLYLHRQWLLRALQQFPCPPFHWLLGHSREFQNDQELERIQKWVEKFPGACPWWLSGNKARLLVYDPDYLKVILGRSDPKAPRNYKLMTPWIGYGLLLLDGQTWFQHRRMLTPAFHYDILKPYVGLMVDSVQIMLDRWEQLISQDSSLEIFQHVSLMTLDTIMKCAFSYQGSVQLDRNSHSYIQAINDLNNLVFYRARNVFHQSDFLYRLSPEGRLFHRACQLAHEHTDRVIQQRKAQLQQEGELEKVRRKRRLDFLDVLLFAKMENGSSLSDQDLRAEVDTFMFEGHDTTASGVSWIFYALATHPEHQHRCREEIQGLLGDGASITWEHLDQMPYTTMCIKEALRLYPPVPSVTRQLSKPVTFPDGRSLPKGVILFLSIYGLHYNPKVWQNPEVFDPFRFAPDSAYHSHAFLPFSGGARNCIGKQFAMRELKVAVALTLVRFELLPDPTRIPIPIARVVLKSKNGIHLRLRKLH

cytochrome P4504A1 = molecular target: T4, cytochrome P4504A1 (Rattus norvegicus, UniProt P08516); conditions: cited from earlier work
T4 sequence (P08516 1-509): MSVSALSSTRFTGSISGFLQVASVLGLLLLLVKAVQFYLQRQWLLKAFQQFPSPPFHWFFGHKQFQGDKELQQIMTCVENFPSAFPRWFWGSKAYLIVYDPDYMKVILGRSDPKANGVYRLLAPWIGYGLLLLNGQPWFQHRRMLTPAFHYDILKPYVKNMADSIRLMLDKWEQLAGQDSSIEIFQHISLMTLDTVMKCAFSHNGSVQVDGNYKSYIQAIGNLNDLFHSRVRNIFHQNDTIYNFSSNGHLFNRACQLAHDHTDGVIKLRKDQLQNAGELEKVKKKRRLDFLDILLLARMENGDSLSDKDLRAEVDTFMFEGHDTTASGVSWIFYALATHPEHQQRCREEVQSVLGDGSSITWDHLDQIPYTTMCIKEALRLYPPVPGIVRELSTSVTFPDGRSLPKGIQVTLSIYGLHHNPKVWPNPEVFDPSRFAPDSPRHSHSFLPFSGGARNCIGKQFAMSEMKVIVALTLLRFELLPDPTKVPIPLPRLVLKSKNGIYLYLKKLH

[3] = system: ethanolamine-specific phospholipid base exchange reaction; conditions: rat liver microsomes; cited from earlier work
[4] = system: hepatic glutathione S-transferases; conditions: cited from earlier work
cyclo-oxygenase = conditions: cited from earlier work
5-lipoxygenase = molecular target: T5, 5-lipoxygenase (Homo sapiens, UniProt P09917); conditions: cited from earlier work
T5 sequence (P09917 1-674): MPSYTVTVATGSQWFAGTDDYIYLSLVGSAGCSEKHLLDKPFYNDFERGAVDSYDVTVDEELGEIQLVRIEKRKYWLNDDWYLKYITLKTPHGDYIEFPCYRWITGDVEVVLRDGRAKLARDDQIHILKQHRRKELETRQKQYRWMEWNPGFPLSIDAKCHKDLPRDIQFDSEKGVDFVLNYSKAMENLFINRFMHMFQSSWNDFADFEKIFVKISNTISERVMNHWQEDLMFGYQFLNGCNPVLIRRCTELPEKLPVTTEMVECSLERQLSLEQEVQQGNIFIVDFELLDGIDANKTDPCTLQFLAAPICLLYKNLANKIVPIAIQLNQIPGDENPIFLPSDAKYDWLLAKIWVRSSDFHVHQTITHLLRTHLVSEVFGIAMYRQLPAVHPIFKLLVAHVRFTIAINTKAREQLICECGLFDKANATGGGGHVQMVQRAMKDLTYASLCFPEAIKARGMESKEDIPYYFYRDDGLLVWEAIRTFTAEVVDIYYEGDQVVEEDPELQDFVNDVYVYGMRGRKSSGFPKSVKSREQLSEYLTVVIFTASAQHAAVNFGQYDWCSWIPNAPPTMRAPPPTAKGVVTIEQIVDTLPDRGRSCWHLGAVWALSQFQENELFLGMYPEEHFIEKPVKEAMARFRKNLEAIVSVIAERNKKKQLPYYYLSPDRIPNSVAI

Fe(III)-LOX = conditions: cited from earlier work

CC(C)CCC[C@@H](C)[C@H]1CC[C@H]2[C@@H]3CC=C4C[C@@H](OC(=O)NCCNCCCNCCN)CC[C@]4(C)[C@H]3CC[C@]12C [CDAN, N^1-cholesteryloxycarbonyl-3,7-diazanononane-1,9-diamine]
net charge [1]: +1.6

CCCCCCCCCCCCC#CCCCC(=O)O [Octadeca-5-ynoic acid]
Hatching of C. tomentosicollis eggs (C. tomentosicollis eggs): inhibits the hatching

CCCCCCCCC#CCCCCCCCC(=O)O [Octadeca-9-ynoic acid, octadeca-9-ynoic acid]
Kd (DNA): 1.8 mM
DNA topoisomerase I-mediated relaxation of a supercoiled plasmid DNA (DNA topoisomerase I): does not inhibit
topisomerase I-mediated DNA filter binding (DNA topoisomerase I): inhibits
Inhibition of DNA polymerase α (DNA polymerase α): weakly inhibitory

C#CCCCCCCCCCCCCCCCC(=O)O [Octadeca-17-ynoic acid]
Inhibition of the substrate-binding pocket of CYP4A4 [2]: effective inhibitor

C#CCCCCCCCCC(=O)O [Undeca-10-ynoic acid]
Inhibition of cytochrome P4504A1 (cytochrome P4504A1): inhibitor
Ethanolamine-specific phospholipid base exchange reaction [3]: inhibits

CCCCCCCCC#CCC#CCC#CCCCC(=O)O [eicosa-5,8,11-triynoic acid]
Inhibition of mammalian hepatic glutathione S-transferases [4]: inhibits

CCCCCC#CC#CC#CCCCCCCC(=O)O [octadeca-8,10,12-triynoic acid]
Inhibition of cyclo-oxygenase (cyclo-oxygenase): potent inhibitors
Inhibition of 5-lipoxygenase (5-lipoxygenase): weak inhibitors

CCCCCC#CCC#CCCCCCCCC(=O)O [octadeca-9,12-diynoic acid]
Inactivation of Fe(III)-LOX (Fe(III)-LOX): irreversibly inactivates
